Source: paper PMC8113213, “Physiologically based kinetic modelling based prediction of in vivo rat and human acetylcholinesterase (AChE) inhibition upon exposure to diazinon” (Archives of Toxicology, 2021)
Like-named read-outs stand apart in the source and are kept apart here.

Key:
CYP450 [1] = test: in vitro; assay type: in vitro ADME, human; conditions: for Km: human
Experimental: (§1) The in vitro incubations for investigating CYP450-mediated biotransformation of DZN were performed using rat and human liver microsomes based on the method described by Sams et al. ([2004]) and Smith et al. ([2011]) with some modifications. Preliminary studies were carried out to optimize both incubation time and microsomal protein concentration, to define conditions at which metabolism was linear with respect to time and the amount of microsomal protein (data not shown) to be used for further kinetic studies. The final incubations contained 50 mM Tris–HCl (pH 7.4), 5 mM MgCl2, 1 mM EDTA (as an A-esterase PON1 inhibitor) (Bizoń and Milnerowicz [2018]), 50 µM iso-OMPA (as a B-esterases inhibitor) (Lane et al. [2006]), 1 mM NADPH, and DZN at final concentrations of 1, 2.5, 5, 10, 25, 50, 100 and 250 µM (added from 100 times concentrated stock solutions in methanol). […] Addition of esterase inhibitors EDTA and iso-OMPA has been commonly applied when studying CYP450-mediated conversion of organophosphate (OP) pesticides in liver microsomal incubations for determining kinetic parameters for their CYP450-mediated pathways (Buratti et al. [2005]; Dadson et al. [2013]; Ellison et al. [2012]; Foxenberg et al. [2007]; Poet et al. [2003]; Smith et al. [2011]). Based on previous studies, CYP450-mediated activities are not adversely affected by the addition of these inhibitors (1 mM EDTA and 50 µM iso-OMPA) to the microsomal incubations (Buratti et al. [2003]; Rasmussen [2012]). After 1 min preincubation in a 37 °C water bath, 2.5 µl of human or rat liver microsomes (final concentration 0.25 mg microsomal protein/ml) were added to initiate the reaction. The total incubation mixture was 200 µl. Control incubations were carried out by replacing NADPH with buffer. The reaction was terminated after 2.5 min by adding 200 µl ice-cold ACN. After the incubation, samples were centrifuged at 16000 g (4℃) for 5 min, and supernatants of rat samples were further diluted 2 × in a mixture of ACN and 50 mM Tris–HCl (pH 7.4) (ratio 1:1, v/v). At the end, both diluted rat sample supernatants and undiluted human sample supernatants were analysed by LC–MS/MS for quantification of metabolite formation.
The chromatographic separations were conducted on a Kinetex® 1.7 µm Phenyl-Hexyl 100 Å LC column (100 × 2.1 mm). The injection volume was 1 µl at a flow rate of 0.3 ml/min. The temperature of the column was kept at 40℃. The mobile phase A consisted of ultrapure water with 0.1% (v/v) formic acid, and mobile phase B consisted of acetonitrile (ACN) with 0.1% (v/v) formic acid. […] The instrument was used in positive mode with multiple reaction monitoring (MRM). The optimized acquisition parameters for DZN, DZO and the metabolite IMHP are listed in Supplementary data I. […]

CYP450 [2] = test: in vitro; assay type: in vitro ADME, rat; conditions: for Km: rat
Experimental: as §1
The chromatographic separations were conducted on a Kinetex® 1.7 µm Phenyl-Hexyl 100 Å LC column (100 × 2.1 mm). The injection volume was 1 µl at a flow rate of 0.3 ml/min. The temperature of the column was kept at 40℃. The mobile phase A consisted of ultrapure water with 0.1% (v/v) formic acid, and mobile phase B consisted of acetonitrile (ACN) with 0.1% (v/v) formic acid. […] The instrument was used in positive mode with multiple reaction monitoring (MRM). The optimized acquisition parameters for DZN, DZO and the metabolite IMHP are listed in Supplementary data I.
The calculation was done using GraphPad Prism 5 for Windows, version 5.04 (GraphPad software, San Diego California USA).

[3] = molecular target: T1, recombinant human AChE (rhAChE) (Homo sapiens, UniProt P22303); test: biochemical
T1 construct: purchased Sigma-Aldrich Co
Experimental: However, since recombinant rat AChE was not commercially available, extracted rat RBC AChE was used. […] The concentration of DTNB was calculated based on the concentration ratio (ATC/DTNB) of 2 (Stern et al. [2014]). […] To initiate the inhibition reaction, 1 µl rhAChE or rat AChE (final concentration 0.6 mU/ml) was added to the incubation. The total incubation volume was 50 µl. After 15 min incubation at 37℃, 150 µl reaction reagents (mixture of ATC at a final concentration of 150 µM and DTNB at a final concentration of 75 µM) were added into each well. The final total volume of each well was 200 µl. Subsequently, the 96-well plate was measured continuously for 10 min at absorbance 412 nm at 37℃ to quantify the remaining AChE activity.
The rhAChE and rat AChE activity were expressed as the remaining AChE activity relative to solvent control (100% activity) and positive control (0% activity) based on Eq. (2):2 AChEactivity\%=A412t10-t0testcompound-A412t10-t0positivecontrol/A412t10-t0solventcontrol-A412t10-t0positivecontrol×100\% , where the A412(t10 − t0)test compound is the change in the absorbance at A412 nm between 0 and 10 min for the test compound, the A412(t10 − t0)positive control is the change in the absorbance at A412 nm between 0 and 10 min for the CPO sample, and the A412(t10 − t0)solvent control is the change in the absorbance at A412nm between 0 and 10 min for the 0.2% ethanol sample.

[4] = rat versus human liver microsomes

T1 sequence (P22303 32-614): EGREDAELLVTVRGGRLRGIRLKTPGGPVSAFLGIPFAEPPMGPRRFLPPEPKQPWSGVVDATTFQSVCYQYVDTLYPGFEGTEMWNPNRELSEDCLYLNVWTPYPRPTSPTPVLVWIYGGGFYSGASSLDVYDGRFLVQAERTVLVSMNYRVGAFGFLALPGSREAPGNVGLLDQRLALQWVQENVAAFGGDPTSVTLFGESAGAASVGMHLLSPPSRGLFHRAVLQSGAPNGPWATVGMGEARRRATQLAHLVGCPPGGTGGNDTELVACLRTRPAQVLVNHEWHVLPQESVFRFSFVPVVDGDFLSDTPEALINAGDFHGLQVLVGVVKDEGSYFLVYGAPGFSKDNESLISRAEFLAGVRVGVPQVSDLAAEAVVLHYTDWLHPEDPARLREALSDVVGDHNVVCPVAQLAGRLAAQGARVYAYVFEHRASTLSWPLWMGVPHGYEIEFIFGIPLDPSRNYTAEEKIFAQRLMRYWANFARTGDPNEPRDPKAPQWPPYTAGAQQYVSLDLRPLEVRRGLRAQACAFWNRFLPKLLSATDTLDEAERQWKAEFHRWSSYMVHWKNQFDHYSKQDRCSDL

## CCOP(=S)(OCC)Oc1cc(C)nc(C(C)C)n1 [DZN, O,O-diethyl O-2-isopropyl-6-methylpyrimidin-4-yl phosphorothioate]
CYP450 [1]; human liver microsomes
  Vmax DZN to DZO: 0.187 nmol/min/mg microsomal protein
  Vmax DZN to IMHP: 0.665 nmol/min/mg microsomal protein
CYP450 [1]; pH 7.4, Km DZN to DZO, human liver microsomes
  Km: 59.6 µM
CYP450 [1]; pH 7.4, human liver microsomes, read-out: Km DZN to IMHP
  Km: 16.3 µM
CYP450 [2]; rat liver microsomes
  Vmax DZN to DZO: 0.288 nmol/min/mg microsomal protein
  Vmax DZN to IMHP: 1.098 nmol/min/mg microsomal protein
CYP450 [2]; [4]
  CYP450-mediated detoxification, more efficient in rat compared to human: 15 fold
  lower Km for CYP450-mediated bioactivation in rat than in human: 12.6 fold
  lower Km for CYP450-mediated detoxification in rat than in human: 9.3 fold
  unscaled catalytic efficiency of CYP450-mediated bioactivation, higher in rat than human: 20 fold
CYP450 [2]; pH 7.4, Km DZN to DZO, rat liver microsomes
  Km: 4.75 µM
CYP450 [2]; pH 7.4, rat liver microsomes, read-out: Km DZN to IMHP
  Km: 1.76 µM
[3]
  lower AChE inhibitory potency of DZN than of DZO: around 300 fold
[3]; rhAChE, 15 min incubation at 37℃, read-out: IC50 for inhibition of AChE activity
  IC50: 14.3 µM
